Key:
MOR = target: T1, MOR (Homo sapiens, UniProt P35372); type: cell-based; details: concentrations as high as 3 μM
T1 construct: expressed in transfected cells; host or cells: U87 cells, transient co-transfection of pNBe vectors
Protocol: (§1) In brief, 1.2×10^6 U87 cells were plated in 10 cm-culture dishes and 48 hours later co-transfected with pNBe vectors encoding GPCRs C-terminally tagged to SmBiT and human β-arrestin-1 or -2 or mini G proteins (mG, engineered GTPase domains of Gα subunits,) N-terminally fused to LgBiT. 48 hours post-transfection cells were harvested, incubated 25 minutes at 37° C. with Nano-Glo Live Cell substrate diluted 200-fold and distributed into white 96-well plates (5×10^4 cells per well). Ligand-induced, β-arrestin and mG recruitment to GPCRs was evaluated with a Mithras LB940 luminometer (Berthold Technologies) for 20 minutes. For concentration-response curves, the signal recorded with a saturating concentration of full agonist for each receptor was set as 100%.

DOR = target: T2, DOR (Homo sapiens, UniProt P41143); experiment: β-arrestin-1 recruitment to DOR (NanoBiT, U87 cells); type: cell-based; details: concentrations as high as 3 μM
T2 construct: expressed in transfected cells; host or cells: U87 cells, transient co-transfection of pNBe vectors
Protocol: as §1

NOP = target: T3, NOP (Homo sapiens, UniProt P41146); experiment: β-arrestin-1 recruitment to NOP (NanoBiT, U87 cells); type: cell-based; details: concentrations as high as 3 μM
T3 construct: expressed in transfected cells; host or cells: U87 cells, transient co-transfection of pNBe vectors
Protocol: as §1

[1] = system: 24 other chemokine receptors; experiment: β-arrestin recruitment to all other chemokine receptors (panel, NanoBiT, U87 cells); type: cell-based, human; details: 3 μM
Protocol: as §1

mouse ACKR3 (mACKR3) = target: T4, mouse ACKR3 (mACKR3) (Mus musculus, UniProt P56485); experiment: β-arrestin-1 recruitment to mouse ACKR3; type: cell-based
T4 construct: expressed in transfected cells; host or cells: U87 cells
Protocol: as §1

[2] = system: rat locus coeruleus neurons; type: cell-based
Protocol: 1.9. Ex Vivo Rat Neuron Depolarization
Adult male Wistar rats (6 to 8-week old) were housed at room temperature in groups of three or four with a 12:12 hour light-dark cycle. All animals had access to ad libitum food and water. All procedures were carried out in accordance with guidelines of the European Communities Council Directive of 24 Nov. 1986 (86609EE) and were accepted by the Ethics Committee for Animal Use of the University of Liège (protocol 2061). All efforts were made to minimize animal suffering.
1.9.2. Brain Explant Preparation and Recording Procedures
Rats were anaesthetized with chloral hydrate (400 mg/kg, i.p.) and placed under a cap with oxygenated air (95% O2, 5% CO2) two minutes prior to decapitation. After decapitation, the brain was rapidly removed and placed in ice cold (˜2° C.) oxygenated artificial cerebrospinal fluid (aCSF) of the following composition: NaCl 130 mM, KCl 3.5 mM, NaH2PO4 1.25 mM, NaHCO3 24 mM, Glucose 10 mM, CaCl2 2 mM, MgSO4 1.25 mM. A block of tissue containing the pons was placed in a vibrating blade microtome (Vibratome 1000 Plus, Sectioning System) and a slice containing the locus coeruleus (LC) immediately rostral to the fourth ventricle and the VIIth nerve, used as anatomical landmarks, was cut coronally (400 μm thick). The slice was placed on a nylon mesh in a recording chamber (volume: 0.5 ml) where it was superfused by oxygenated aCSF (34.0±0.5° C.) at a rate of 2 to 3 ml/min. The LC was recognized as a translucent region during transillumination, lateral to the fourth ventricle. All experiments were performed in oxygenated aCSF with synaptic blockers consisting of 10 μM CNQX, 10 μM SR95531, 1 μM MK801, and 1 μM CGP55845, which block AMPA/Kainate, GABAA, NMDA, and GABAB receptors, respectively. This ensured that the spontaneous firing of the neurons was only due to its endogenous pace making.
Extracellular single cell recordings of LC neurons were performed with glass microelectrodes filled with aCSF (resistance 10-20 MΩ). Signals were passed through an impedance adapter and were amplified 1000× using a home-made amplifier. […] Data were collected and analysed with the Spike 2 software (Cambridge Electronic Design). […] The duration of the extracellularly recorded action potentials was 2-3 ms. Drugs and peptides were applied for at least 10 minutes.
The mean firing rate over 1 minute was calculated during each condition. Next, the inhibition of firing by the peptides and drugs used (LIH383 and dynorphin) was quantified as the % of total inhibition. For this purpose, present inventors considered the mean firing rate during the last minute of each condition (control, LIH383 alone, LIH383 plus a given concentration of dynorphin).

ACKR3 [3] = experiment: Binding competition | ACKR3 | IC50 (nM)
From the text: Table printed on a drawing sheet, FIG. 1 (continued) H
Head of the field: Binding competition | ACKR3 | IC50 (nM)
The patent's description of the figure: FIG. 1 Opioid peptide library screening on ACKR3, hit confirmation and comparison with classical opioid receptors. (A) The ability of 58 compounds, including natural opioid peptides from the four opioid families, variants thereof and small molecule opioid receptor modulators, to induce β-arrestin-2 recruitment to ACKR3, CXCR4 and CXCR3 in U87 cells at a concentration of 5 μM. Positive control chemokines were used at a concentration of 300 nM. Results are expressed as fold change over vehicle-treated cells and presented as mean±S.D of two replicates (B-F) Comparison of potency and efficacy of ACKR3-activating peptides in inducing β-arrestin-1 recruitment to the opioid receptors MOR (B), DOR (C), KOR (D), NOP (E) and ACKR3 (F) in U87 cells. Results are expressed as percentage of indicated agonist response. […] Results from B—H are presented as mean±S.E.M (n ? 3).
Where the first naming reader finds the target: head: Binding competition | ACKR3 | IC50 (nM)

ACKR3 [4] = target: ACKR3 (Homo sapiens, UniProt P25106); experiment: ACKR3-mediated depletion of extracellular dynorphin A monitored by its ability to activate KOR (U87-ACKR3 cells); type: cell-based; parameters: expressed in transfected cells; for the receptor comparison in the uptake assay, transient pcDNA3.1); details: pre-treatment of ACKR3-expressing cells, saturating concentration
Protocol: as §1

T2 sequence (P41143 whole entry): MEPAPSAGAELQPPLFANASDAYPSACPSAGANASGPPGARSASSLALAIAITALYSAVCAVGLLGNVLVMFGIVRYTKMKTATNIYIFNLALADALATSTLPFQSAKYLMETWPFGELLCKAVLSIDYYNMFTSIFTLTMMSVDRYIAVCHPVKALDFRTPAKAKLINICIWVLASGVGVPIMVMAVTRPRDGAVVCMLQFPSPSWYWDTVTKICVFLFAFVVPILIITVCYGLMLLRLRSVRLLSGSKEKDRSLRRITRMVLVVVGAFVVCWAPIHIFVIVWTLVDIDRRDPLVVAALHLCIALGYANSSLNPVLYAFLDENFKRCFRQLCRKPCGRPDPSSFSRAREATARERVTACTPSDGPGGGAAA
T1 sequence (P35372 whole entry): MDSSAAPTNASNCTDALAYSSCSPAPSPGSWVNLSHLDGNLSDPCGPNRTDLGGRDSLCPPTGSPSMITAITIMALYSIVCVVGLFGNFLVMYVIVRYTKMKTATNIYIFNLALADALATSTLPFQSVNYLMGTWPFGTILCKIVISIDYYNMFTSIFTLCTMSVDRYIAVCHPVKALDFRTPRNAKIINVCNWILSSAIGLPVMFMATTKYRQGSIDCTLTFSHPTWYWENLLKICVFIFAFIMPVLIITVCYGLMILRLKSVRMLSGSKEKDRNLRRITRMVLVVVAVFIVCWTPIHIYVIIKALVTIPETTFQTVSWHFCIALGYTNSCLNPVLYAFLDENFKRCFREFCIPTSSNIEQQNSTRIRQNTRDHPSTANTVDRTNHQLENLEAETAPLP
T3 sequence (P41146 whole entry): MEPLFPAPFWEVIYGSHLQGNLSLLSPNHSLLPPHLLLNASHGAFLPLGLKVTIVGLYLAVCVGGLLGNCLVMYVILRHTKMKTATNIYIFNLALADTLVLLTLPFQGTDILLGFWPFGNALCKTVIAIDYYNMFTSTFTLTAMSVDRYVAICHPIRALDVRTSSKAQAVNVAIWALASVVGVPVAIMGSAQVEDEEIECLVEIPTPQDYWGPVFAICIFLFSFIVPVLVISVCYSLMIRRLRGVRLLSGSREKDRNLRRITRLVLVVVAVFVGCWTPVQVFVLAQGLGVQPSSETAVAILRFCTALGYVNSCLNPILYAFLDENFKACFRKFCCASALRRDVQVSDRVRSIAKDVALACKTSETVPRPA
T4 sequence (P56485 whole entry): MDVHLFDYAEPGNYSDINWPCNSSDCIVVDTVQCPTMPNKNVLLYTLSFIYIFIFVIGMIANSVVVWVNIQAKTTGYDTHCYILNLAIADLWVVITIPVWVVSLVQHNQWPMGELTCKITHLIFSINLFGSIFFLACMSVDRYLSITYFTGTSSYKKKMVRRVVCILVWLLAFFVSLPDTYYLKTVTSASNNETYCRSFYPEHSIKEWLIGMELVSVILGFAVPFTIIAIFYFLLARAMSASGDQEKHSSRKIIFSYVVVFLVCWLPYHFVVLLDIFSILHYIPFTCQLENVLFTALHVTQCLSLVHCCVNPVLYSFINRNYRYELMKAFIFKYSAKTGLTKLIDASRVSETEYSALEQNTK
T4 sequence (P49407 whole entry partner): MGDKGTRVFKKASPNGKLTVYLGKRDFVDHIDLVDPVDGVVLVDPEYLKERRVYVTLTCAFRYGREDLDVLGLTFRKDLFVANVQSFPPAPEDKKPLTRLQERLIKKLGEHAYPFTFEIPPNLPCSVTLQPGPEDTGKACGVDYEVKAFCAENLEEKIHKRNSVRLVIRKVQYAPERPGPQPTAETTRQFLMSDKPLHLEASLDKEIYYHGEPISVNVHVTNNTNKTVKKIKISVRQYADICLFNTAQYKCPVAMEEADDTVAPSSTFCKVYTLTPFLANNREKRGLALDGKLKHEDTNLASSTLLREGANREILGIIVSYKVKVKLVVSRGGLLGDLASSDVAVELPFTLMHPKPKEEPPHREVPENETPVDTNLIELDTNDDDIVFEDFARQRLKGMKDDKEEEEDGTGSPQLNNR
ACKR3 (Homo sapiens, UniProt P25106), sequence (P25106 whole entry): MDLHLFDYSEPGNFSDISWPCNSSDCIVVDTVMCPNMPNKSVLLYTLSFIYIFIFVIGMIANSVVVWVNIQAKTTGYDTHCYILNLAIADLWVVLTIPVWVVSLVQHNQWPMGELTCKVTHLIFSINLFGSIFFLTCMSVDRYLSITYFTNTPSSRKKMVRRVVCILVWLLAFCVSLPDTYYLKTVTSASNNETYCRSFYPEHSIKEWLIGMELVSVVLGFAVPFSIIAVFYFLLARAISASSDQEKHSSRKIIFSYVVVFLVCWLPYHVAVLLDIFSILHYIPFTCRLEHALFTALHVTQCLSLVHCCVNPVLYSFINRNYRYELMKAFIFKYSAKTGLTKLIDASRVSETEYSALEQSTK

CSCC[C@H](NC(=O)[C@H](Cc1ccccc1)NC(=O)CNC(=O)CNC(=O)[C@@H](N)Cc1ccccc1)C(=O)N[C@@H](CCCNC(=N)N)C(=O)N[C@@H](CCCNC(=N)N)C(=O)N[C@@H](CCCCN)C(N)=O [LIH383]
activation or inhibition of MOR (MOR): no activation or inhibition | activation or inhibition of DOR (DOR): no activation or inhibition | activation or inhibition of NOP (NOP): no activation or inhibition | β-arrestin recruitment to the other chemokine receptors [1]: no activation or inhibition | agonist activity on mouse ACKR3 compared with human ACKR3 (mouse ACKR3 (mACKR3)): equivalent activity on human and mouse ACKR3 | effect of pretreatment on dynorphin A-induced depolarization inhibition ([2]; LIH383 1 or 3 μM): significant increase of depolarization inhibition and an apparent improved potency of dynorphin A towards its classical receptors | inhibition of neuronal firing ([2]; concentration as high as 3 μM): did not lead to significant inhibition of neuronal firing | IC50 (ACKR3 [3]): 4 nM | reversal of the ACKR3-mediated impairment of dynorphin A potency to activate KOR by pre-treatment (ACKR3 [4]): reversed

— patent US12578343B2, “Selective ACKR3 modulators and uses thereof” (Luxembourg Institute of Health (LIH), priority 2019, dated 2026)
